Reference: patent US9951066B2, “Compositions, uses and methods for making them” (Pimera, Inc., priority 2014, dated 2018)
Where a name gives a salt, the structure may show the parent alone. Read-outs that look alike come from different tables or passages of the source.

Key:
Assay type in all cases: cell-based
A375 cell line = experiment: Alamar Blue cell viability assay, A375; conditions: Homo sapiens, A-375; cell proliferation inhibition, Alamar Blue, 96 h incubation; read-out: Pharmaceutical activity IC50 A375
Description: (§1) Inhibitory activity on cell proliferation of representative compounds of the invention was determined using an Alamar Blue cell viability assay as described hereafter.
(§2) 3000 cancer cells in 100 uL of cell culture media were plated in each well of a 96-well clear bottom, black wall cell culture-pretreated plate.
(§3) The next day compounds are serially diluted (3-fold in cell culture media) across a 96-well polypropylene mother plate from row A to row F, to yield 6 concentrations (10 uM, 3.3 uM, 1.1 uM, 370 nM, 124 nM and 41 nM) for each test compound. Rows G and H contain only DMSO.
(§4) Once titrations are made, the media in plates with cells were disposed and 100 μL of drug dilutions are transferred to plates with cells. After a ninety six-hour incubation at 37° C., 10 uL of resazurin solution from Alamar Blue Cell Viability kit (Invitrogen, Carlsbad, Calif.) was added to the media and cells were incubated at 37° C. for three more hours. At the end of this incubation the production of resofurin was measured using Spectrmax M2 microplate reader (Molecular Devices, Sunnyvale, Calif.)

A2058 = experiment: Alamar Blue cell viability assay, A2058; conditions: Homo sapiens, cell proliferation inhibition, 96 h incubation, read-out: Pharmaceutical activity IC50 A2058
Description: as §1, §2, §3, §4

ES.2 = experiment: Alamar Blue cell viability assay, ES.2; conditions: Homo sapiens
Description: as §1, §2, §3, §4

Hs.294T = experiment: Alamar Blue cell viability assay, Hs.294T; conditions: Homo sapiens, 96 h incubation, read-out: cell proliferation inhibition Hs.294T
Description: as §1, §2, §3, §4

WM-115 = experiment: Alamar Blue cell viability assay, WM-115; conditions: Homo sapiens, 96 h incubation, read-out: cell proliferation inhibition WM-115
Description: as §1, §2, §3, §4

Hep G2 = experiment: Alamar Blue cell viability assay, Hep G2; conditions: Homo sapiens, HepG2, 96 h incubation, read-out: cell proliferation inhibition Hep G2
Description: as §1, §2, §3, §4

SKM-1 = experiment: Alamar Blue cell viability assay, SKM-1; conditions: Homo sapiens, 96 h incubation, read-out: cell proliferation inhibition SKM-1
Description: as §1, §2, §3, §4

KG-1 = experiment: Alamar Blue cell viability assay, KG-1; conditions: Homo sapiens, 96 h incubation, read-out: cell proliferation inhibition KG-1
Description: as §1, §2, §3, §4

ML-2 = experiment: Alamar Blue cell viability assay, ML-2; conditions: Homo sapiens, 96 h incubation, read-out: cell proliferation inhibition ML-2
Description: as §1, §2, §3, §4

NB4-Av = experiment: Alamar Blue cell viability assay, NB4-Av; conditions: 96 h incubation, read-out: cell proliferation inhibition NB4-Av
Description: as §1, §2, §3, §4

NOMO-1 = experiment: Alamar Blue cell viability assay, NOMO-1; conditions: Homo sapiens, 96 h incubation, read-out: cell proliferation inhibition NOMO-1
Description: as §1, §2, §3, §4

SKM_1_AV = experiment: Alamar Blue cell viability assay, SKM_1_AV; conditions: 96 h incubation, read-out: cell proliferation inhibition SKM_1_AV
Description: as §1, §2, §3, §4

B16-F10 = experiment: Alamar Blue cell viability assay, B16-F10; conditions: Mus musculus, 96 h incubation, read-out: cell proliferation inhibition B16-F10
Description: as §1, §2, §3, §4

AGS = experiment: Alamar Blue cell viability assay, AGS; conditions: Homo sapiens, 96 h incubation, read-out: cell proliferation inhibition AGS
Description: as §1, §2, §3, §4

MCF7 = experiment: Alamar Blue cell viability assay, MCF7; conditions: Homo sapiens, 96 h incubation, read-out: cell proliferation inhibition MCF7
Description: as §1, §2, §3, §4

MDA-MB-231 = experiment: Alamar Blue cell viability assay, MDA-MB-231; conditions: Homo sapiens, 96 h incubation, read-out: cell proliferation inhibition MDA-MB-231
Description: as §1, §2, §3, §4

DLD-1 = experiment: Alamar Blue cell viability assay, DLD-1; conditions: Homo sapiens, 96 h incubation, read-out: cell proliferation inhibition DLD-1
Description: as §1, §2, §3, §4

CT26 = experiment: Alamar Blue cell viability assay, CT26; conditions: Mus musculus, 96 h incubation, read-out: cell proliferation inhibition CT26
Description: as §1, §2, §3, §4

LnCAP = experiment: Alamar Blue cell viability assay, LnCAP; conditions: Homo sapiens, 96 h incubation, read-out: cell proliferation inhibition LnCAP
Description: as §1, §2, §3, §4

4T1 = experiment: Alamar Blue cell viability assay, 4T1; conditions: Mus musculus, 96 h incubation, read-out: cell proliferation inhibition 4T1
Description: as §1, §2, §3, §4

NCI-H1299 = experiment: Alamar Blue cell viability assay, NCI-H1299; conditions: Homo sapiens, 96 h incubation, read-out: cell proliferation inhibition NCI-H1299
Description: as §1, §2, §3, §4

HCT-116 = experiment: Alamar Blue cell viability assay, HCT-116; conditions: Homo sapiens, 96 h incubation, read-out: cell proliferation inhibition HCT-116
Description: as §1, §2, §3, §4

A549 = experiment: Alamar Blue cell viability assay, A549; conditions: Homo sapiens, 96 h incubation, read-out: cell proliferation inhibition A549
Description: as §1, §2, §3, §4

PC-3 = experiment: Alamar Blue cell viability assay, PC-3; conditions: Homo sapiens, 96 h incubation, read-out: cell proliferation inhibition PC-3
Description: as §1, §2, §3, §4

HT-1080 = experiment: Alamar Blue cell viability assay, HT-1080; conditions: Homo sapiens, 96 h incubation, read-out: cell proliferation inhibition HT-1080
Description: as §1, §2, §3, §4

Malme-3M = experiment: Alamar Blue cell viability assay, Malme-3M; conditions: Homo sapiens, cell proliferation inhibition, 96 h incubation, read-out: Pharmaceutical activity IC50 Malme-3M
Description: as §1, §2, §3, §4

SK-MEL 28 = experiment: Alamar Blue cell viability assay, SK-MEL 28; conditions: Homo sapiens, cell proliferation inhibition, 96 h incubation, read-out: Pharmaceutical activity IC50 SK-MEL 28
Description: as §1, §2, §3, §4

2008 = experiment: Alamar Blue cell viability assay, 2008; conditions: cell proliferation inhibition, 96 h incubation, read-out: Pharmaceutical activity IC50 2008
Description: as §1, §2, §3, §4

A2780 = experiment: Alamar Blue cell viability assay, A2780; conditions: Homo sapiens, cell proliferation inhibition, 96 h incubation, read-out: Pharmaceutical activity IC50 A2780
Description: as §1, §2, §3, §4

U-87 MG = experiment: Alamar Blue cell viability assay, U-87 MG; conditions: Homo sapiens, cell proliferation inhibition, 96 h incubation, read-out: Pharmaceutical activity IC50 U-87 MG
Description: as §1, §2, §3, §4

kuramochi = experiment: Alamar Blue cell viability assay, kuramochi ovarian cell line; conditions: 96 h incubation, read-out: IC50 in ovarian cell lines kuramochi
Description: as §1, §2, §3, §4

JHOC7 = experiment: Alamar Blue cell viability assay, JHOC7 ovarian cell line; conditions: 96 h incubation, read-out: IC50 in ovarian cell lines JHOC7
Description: as §1, §2, §3, §4

JHOC9 = experiment: Alamar Blue cell viability assay, JHOC9 ovarian cell line; conditions: 96 h incubation, read-out: IC50 in ovarian cell lines JHOC9
Description: as §1, §2, §3, §4

JHOM1 = experiment: Alamar Blue cell viability assay, JHOM1 ovarian cell line; conditions: 96 h incubation, read-out: IC50 in ovarian cell lines JHOM1
Description: as §1, §2, §3, §4

EF-21 = experiment: Alamar Blue cell viability assay, EF-21 ovarian cell line; conditions: 96 h incubation, read-out: IC50 in ovarian cell lines EF-21
Description: as §1, §2, §3, §4

TOV112D = experiment: Alamar Blue cell viability assay, TOV112D ovarian cell line; conditions: Homo sapiens, 96 h incubation, read-out: IC50 in ovarian cell lines TOV112D
Description: as §1, §2, §3, §4

[1] = Table 2, 96 h incubation, read-out: cell proliferation inhibition ES.2

SMILES | IC50 (A375 cell line) [nM] | IC50 (SKM-1) [nM] | IC50 (SKM_1_AV) [nM] | IC50 (B16-F10) [nM] | IC50 (AGS) [nM] | IC50 (MCF7) [nM] | IC50 (MDA-MB-231) [nM] | IC50 (DLD-1) [nM] | IC50 (CT26) [nM] | IC50 (LnCAP) [nM] | IC50 (4T1) [nM] | IC50 (NCI-H1299) [nM] | IC50 (HCT-116) [nM] | IC50 (A549) [nM] | IC50 (PC-3) [nM] | IC50 (Hep G2) [nM] | IC50 (KG-1) [nM] | IC50 (ML-2) [nM] | IC50 (NB4-Av) [nM] | IC50 (NOMO-1) [nM] | further results
CNC(=O)c1cc2ccc(N3CCCN(C)CC3)nc2n2c1nc1ccccc12 [Compound 2G, 2-(4-methyl-[1,4]diazepan-1-yl)-1,7,11b-triazabenzo[c]fluorene-6-carboxylic acid methylamide] | < 1000 | < 1000 | < 1000 | 1000 to 5000 | < 1000 | 1000 to 5000 | < 1000 | < 1000 | 1000 to 5000 | 1000 to 5000 | 5000 to 10000 | 1000 to 5000 | < 1000 | 1000 to 5000 | < 1000 | < 1000 | < 1000 | < 1000 | < 1000 | < 1000 | IC50 (A2058): < 1000 nM; IC50 (Malme-3M): < 1000 nM; IC50 (SK-MEL 28): < 1000 nM; IC50 2008: < 1000 nM; IC50 (A2780): < 1000 nM; IC50 (ES.2; Table 1, cell proliferation inhibition, 96 h incubation, read-out: Pharmaceutical activity IC50 ES.2): < 1000 nM; IC50 (ES.2; [1]): < 1000 nM; IC50 (U-87 MG): < 1000 nM; IC50 (Hs.294T): < 1000 nM; IC50 (WM-115): 1000 to 5000 nM; IC50 (HT-1080): 1000 to 5000 nM; IC50 (kuramochi): < 1000 nM; IC50 (JHOC7): < 1000 nM; IC50 (JHOC9): < 1000 nM; IC50 (JHOM1): < 1000 nM; IC50 (EF-21): < 1000 nM; IC50 (TOV112D): < 1000 nM
CCN1CCN(c2ccc3cc(C#N)c4nc5ccccc5n4c3n2)CC1 [Compound 3B, 2-(4-ethylpiperazin-1-yl)-1,7,11b-triaza-benzo[c]fluorene-6-carbonitrile] | < 1000 | < 1000 | – | – | – | – | – | – | – | – | – | – | – | – | – | < 1000 | – | – | – | – | –
C[C@@H]1CN(c2ccc3cc(C#N)c4nc5ccccc5n4c3n2)C[C@H](C)N1 [Compound 3A, 2-((3S,5R)-3,5-dimethylpiperazin-1-yl)-1,7,11b-triaza-benzo[c]fluorene-6-carbonitrile] | < 1000 | < 1000 | < 1000 | 1000 to 5000 | < 1000 | 5000 to 10000 | < 1000 | < 1000 | 5000 to 10000 | 5000 to 10000 | 5000 to 10000 | 5000 to 10000 | < 1000 | 5000 to 10000 | 1000 to 5000 | < 1000 | < 1000 | < 1000 | < 1000 | < 1000 | IC50 (HT-1080): 5000 to 10000 nM

More lines, main results first:

IC50 (A375 cell line) [nM] | IC50 (SKM-1) [nM] | IC50 (SKM_1_AV) [nM] | IC50 (B16-F10) [nM] | IC50 (AGS) [nM] | IC50 (MCF7) [nM] | IC50 (MDA-MB-231) [nM] | IC50 (DLD-1) [nM] | IC50 (CT26) [nM] | IC50 (LnCAP) [nM] | IC50 (4T1) [nM] | IC50 (NCI-H1299) [nM] | IC50 (HCT-116) [nM] | IC50 (A549) [nM] | IC50 (PC-3) [nM] | SMILES | IC50 (Hep G2) [nM] | IC50 (KG-1) [nM] | IC50 (ML-2) [nM] | IC50 (NB4-Av) [nM] | IC50 (NOMO-1) [nM] | further results
< 1000 | – | – | – | – | – | – | – | – | – | – | – | – | – | – | Cc1cnc(CNC(=O)c2cc3ccc(N4CCCN(C)CC4)nc3n3c2nc2ccccc23)cn1 [Compound 2E, 2-(4-methyl-[1,4]diazepan-1-yl)-1,7,11b-triazabenzo[c]fluorene-6-carboxylic acid (5-methylpyrazin-2-ylmethyl)-amide] | – | – | – | – | – | IC50 (A2058): 5000 to 10000 nM
< 1000 | < 1000 | < 1000 | 5000 to 10000 | 1000 to 5000 | 1000 to 5000 | 1000 to 5000 | 1000 to 5000 | 5000 to 10000 | 5000 to 10000 | 5000 to 10000 | 1000 to 5000 | < 1000 | 5000 to 10000 | 1000 to 5000 | CN1CCCN(c2ccc3cc(C(=O)O)c4nc5ccccc5n4c3n2)CC1 [Compound 1A, 2-(4-methyl-[1,4]diazepan-1-yl)-1,7,11b-triaza-benzo[c]fluorene-6-carboxylate sodium salt] | < 1000 | < 1000 | < 1000 | < 1000 | < 1000 | IC50 (ES.2; [1]): < 1000 nM; IC50 (Hs.294T): < 1000 nM; IC50 (WM-115): < 1000 nM; IC50 (HT-1080): 1000 to 5000 nM
